{"source": "patent US20190075797A1", "about": "“Safened Herbicidal compositions containing halauxifen or 4-amino-3-chloro-6-(4-chloro-2-fluoro-3-methoxyphenyl)-5-fluoropyridine-2-carboxylic acid and methods of use thereof in centipedegrass” (Dow AgroSciences LLC, priority 2017, published 2019)", "tested_on": "centipedegrass", "conditions": "for centipedegrass injury: dicamba alone, 0 to 10 scale; for Observed Injury: 0-10 scale, 0=no injury, 10=death", "note": "Where a name gives a salt, the structure may show the parent alone. Read-outs that look alike come from different tables or passages of the source.", "experimental": "A trial was initiated Apr. […] Research was conducted as a randomized complete block design (4 reps), with plot size equal to 6 square meters (2 meter width and 3 meter length). This provided a roughly 1.5 foot buffer between experimental units for reference. Herbicide treatments were applied within a water carrier volume of 40 gallons/acre. A two inch rainfall occurred 48 hours prior to initiation (April 17). Time to next rainfall: roughly 1 inch fell during the late night hours of the 21st and early morning of 22nd. Centipedegrass was approximately 90% green cover at time of treatment-almost fully transitioned from winter dormancy. […] Turf injury (0-10 scale, 0=no injury, 10=death), color (1-9 scale, 1=brown, 9=dark green), and density (0-100%) were evaluated 5, 8, 13, 23, 29 and 44 days after treatment (DAT). Data were subject to analysis of variance (alpha=0.05). Means separations were estimated using Student Knewman Keul's test (alpha=0.05) within ARM v."}
{"compound": "COc1c(Cl)ccc(Cl)c1C(=O)O", "note": "[Dicamba MIBPA, N,N-bis(3-aminopropyl)methylamine salt (MIBPA) of dicamba]", "values": [{"measurement": "centipedegrass injury", "setting": "23 DAT, regardless of rate", "value": "< 0.8"}, {"measurement": "centipedegrass injury", "setting": "29 DAT, across all rates", "value": 0}, {"measurement": "Observed Injury", "setting": "Dicamba MIBPA 0.12 lb ae/a alone, 5 DAA", "value": 0.0}, {"measurement": "Observed Injury", "setting": "Dicamba MIBPA 0.12 lb ae/a alone, 8 DAA", "value": 0.0}, {"measurement": "Observed Injury", "setting": "Dicamba MIBPA 0.12 lb ae/a alone, 13 DAA", "value": 0.0}, {"measurement": "Observed Injury", "setting": "Dicamba MIBPA 0.12 lb ae/a alone, 23 DAA", "value": 0.38}, {"measurement": "Observed Injury", "setting": "Dicamba MIBPA 0.12 lb ae/a alone, 29 DAA", "value": 0.00}, {"measurement": "Observed Injury", "setting": "Dicamba MIBPA 0.12 lb ae/a alone, 44 DAA", "value": 0.25}, {"measurement": "Observed Injury", "setting": "Dicamba MIBPA 0.24 lb ae/a alone, 5 DAA", "value": 0.0}, {"measurement": "Observed Injury", "setting": "Dicamba MIBPA 0.24 lb ae/a alone, 8 DAA", "value": 0.0}, {"measurement": "Observed Injury", "setting": "Dicamba MIBPA 0.24 lb ae/a alone, 13 DAA", "value": 0.0}, {"measurement": "Observed Injury", "setting": "Dicamba MIBPA 0.24 lb ae/a alone, 23 DAA", "value": 0.38}, {"measurement": "Observed Injury", "setting": "Dicamba MIBPA 0.24 lb ae/a alone, 29 DAA", "value": 0.00}, {"measurement": "Observed Injury", "setting": "Dicamba MIBPA 0.24 lb ae/a alone, 44 DAA", "value": 0.38}, {"measurement": "Observed Injury", "setting": "Dicamba MIBPA 0.36 lb ae/a alone, 5 DAA", "value": 0.0}, {"measurement": "Observed Injury", "setting": "Dicamba MIBPA 0.36 lb ae/a alone, 8 DAA", "value": 0.0}, {"measurement": "Observed Injury", "setting": "Dicamba MIBPA 0.36 lb ae/a alone, 13 DAA", "value": 0.0}, {"measurement": "Observed Injury", "setting": "Dicamba MIBPA 0.36 lb ae/a alone, 23 DAA", "value": 0.75}, {"measurement": "Observed Injury", "setting": "Dicamba MIBPA 0.36 lb ae/a alone, 29 DAA", "value": 0.00}, {"measurement": "Observed Injury", "setting": "Dicamba MIBPA 0.36 lb ae/a alone, 44 DAA", "value": 0.50}]}
